Experiments:
[1] = tested on: optic neuritis / EAE; experiment: Incidence of optic neuritis (optic nerve histology, H & E) and clinical EAE score in PLP-immunized mice; format: in vivo, SJL/J mice
[2] = tested on: retinal ganglion cells (RGCs); experiment: Retinal ganglion cell (RGC) counts in EAE mice with acute optic neuritis, intravitreal treatment; settings: for RGC loss: EAE eyes with optic neuritis
Protocol: Study outline: The neuroprotective effects of nicotinamide riboside were examined in EAE mice with optic neuritis. […] To induce EAE, mice were immunized several days later with 300 μg PLP emulsified in complete Freund's adjuvant (CFA), and control mice (without EAE) were mock-immunized with phosphate buffered saline (PBS) in CFA. All mice received 200 ng intraperitoneal pertussis toxin (PT) on the day of immunization (day 0) and again on day 2.
Eyes were treated with nicotinamide riboside by intravitreal (ivt) injections with a volume of 0.8 μl/injection of a stock solution of either 0.1 M or 0.4 M nicotinamide riboside in PBS (Groups 2, 4 and 5). […] Treament with nicotinamide riboside, as well as PBS control injections, were given ivt on days 0, 4, 7 and 11. Mice were scored daily for clinical EAE, and were sacrificed on day 14 by overdose with ketamine and xylazine.
Retinas were dissected and whole-mounted for fluorescent microscopy. RGC numbers were quantified by counting FG-labeled cells in 12 standardized fields in each retina. Optic nerves were dissected and processed for histology. Cut sections stained by H & E were evaluated for the presence of inflammatory cells to determine acute optic neuritis. RGCs were compared between PBS-treated and nicotinamide riboside-treated eyes with optic neuritis to determine whether nicotinamide riboside prevents loss of neurons.

NC(=O)c1ccc[n+]([C@@H]2O[C@H](CO)[C@@H](O)[C@H]2O)c1 [nicotinamide riboside]
Inflammatory cell infiltration ([1]; optic nerve): does not prevent
Clinical EAE ([1]; treated mice vs controls): did not differ
Incidence of optic neuritis ([1]; treated mice vs controls): did not differ
Preserving RGCs in an acute optic neuritis model (FIG. 19) [2]: effective
RGC loss ([2]; 100 mM treatment (Group 4) vs PBS-treated (Group 3)): reduced
RGC loss ([2]; 400 mM treatment (Group 5) vs PBS-treated (Group 3)): completely blocked
Neuroprotection of RGCs during acute optic neuritis in EAE ([2]; dose-dependent manner): neuroprotective
Toxicity to RGCs ([2]; mouse, in vivo): not toxic
RGC numbers, non-EAE eyes treated vs control eyes ([2]; non-EAE eyes, Group 2 vs Group 1): no difference

Source: US20070014833A1, “Treatment of eye disorders with sirtuin modulators” (priority 2005, published 2007)
